Assay results from ChEMBL document CHEMBL1908105, “UDP-glucuronosyltransferases and clinical drug-drug interactions” (Pharmacol Ther, 2005).
Values joined by “and” are separate entries in the source; they are usually repeats but may differ in a detail not shown here. Equal entries are not always repeated.

Experiments:
[1] = target: T1, UDP-glucuronosyltransferase 2B7 (Homo sapiens, UniProt P16662); test: Inhibition of AZT glucuronidation by human recombinant UGT2B7
T1 sequence (P16662 whole entry): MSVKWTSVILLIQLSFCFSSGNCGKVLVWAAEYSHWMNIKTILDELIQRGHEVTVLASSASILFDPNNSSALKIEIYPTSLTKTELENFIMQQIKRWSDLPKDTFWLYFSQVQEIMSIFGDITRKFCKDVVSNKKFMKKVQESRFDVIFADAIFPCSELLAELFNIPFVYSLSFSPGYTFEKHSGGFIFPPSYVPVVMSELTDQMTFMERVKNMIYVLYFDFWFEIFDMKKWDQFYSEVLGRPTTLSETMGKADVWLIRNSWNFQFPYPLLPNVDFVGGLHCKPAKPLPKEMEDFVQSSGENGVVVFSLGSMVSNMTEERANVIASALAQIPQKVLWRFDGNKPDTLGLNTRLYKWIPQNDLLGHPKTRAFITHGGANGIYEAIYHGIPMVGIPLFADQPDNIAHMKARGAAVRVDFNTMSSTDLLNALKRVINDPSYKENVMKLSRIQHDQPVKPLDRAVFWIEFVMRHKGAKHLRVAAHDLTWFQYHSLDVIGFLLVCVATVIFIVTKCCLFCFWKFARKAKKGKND

UGT2B15 = UGT2B15 (Homo sapiens, UniProt P54855); test: Inhibition of dihydrotestosterone (assayed at the Km) glucuronidation by human recombinant UGT2B15 (+/- 11% inhibition at 5mM VPA); settings: recombinant UGT2B15, probe dihydrotestosterone
UGT1A9 [2] = target: T2, UGT1A9 (Homo sapiens, UniProt O60656); test: Inhibition of propofol (assayed at the Km) glucuronidation by human recombinant UGT1A9 (+/- 15% inhibition at 5mM VPA); settings: recombinant UGT1A9, probe propofol
[3] = target: T3, UDP-glucuronosyltransferase 1A1 (Homo sapiens, UniProt P22309); test: Inhibition of 4-methylumbelliferone glucuronidation by human recombinant UGT1A1
T3 sequence (P22309 whole entry): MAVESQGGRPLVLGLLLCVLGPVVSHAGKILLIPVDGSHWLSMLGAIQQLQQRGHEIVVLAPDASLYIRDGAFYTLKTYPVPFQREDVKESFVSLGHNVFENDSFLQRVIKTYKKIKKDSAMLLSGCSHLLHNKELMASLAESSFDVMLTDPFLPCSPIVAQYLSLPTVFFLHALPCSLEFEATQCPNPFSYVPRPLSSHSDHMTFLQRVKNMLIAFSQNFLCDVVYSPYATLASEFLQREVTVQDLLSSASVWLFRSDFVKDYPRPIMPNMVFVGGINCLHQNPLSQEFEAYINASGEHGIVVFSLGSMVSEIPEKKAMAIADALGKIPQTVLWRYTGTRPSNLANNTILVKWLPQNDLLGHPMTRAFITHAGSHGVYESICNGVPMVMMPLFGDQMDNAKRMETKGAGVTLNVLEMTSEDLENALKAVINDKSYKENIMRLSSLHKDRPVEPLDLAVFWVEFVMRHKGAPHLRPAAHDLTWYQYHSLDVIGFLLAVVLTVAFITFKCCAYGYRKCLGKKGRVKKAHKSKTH

[4] = target: UDP-glucuronosyltransferase 1A10 (Homo sapiens, UniProt Q9HAW8); test: Inhibition of 4-methylumbelliferone glucuronidation by human recombinant UGT1A10
[5] = target: UDP-glucuronosyltransferase 1A6 (Homo sapiens, UniProt P19224); test: Inhibition of 4-methylumbelliferone glucuronidation by human recombinant UGT1A6
[6] = target: UDP-glucuronosyltransferase 1A7 (Homo sapiens, UniProt Q9HAW7); test: Inhibition of 4-methylumbelliferone glucuronidation by human recombinant UGT1A7
[7] = target: T4, UDP-glucuronosyltransferase 1A9 (Homo sapiens, UniProt O60656); test: Inhibition of 4-methylumbelliferone glucuronidation by human recombinant UGT1A9
T4 sequence (O60656 whole entry): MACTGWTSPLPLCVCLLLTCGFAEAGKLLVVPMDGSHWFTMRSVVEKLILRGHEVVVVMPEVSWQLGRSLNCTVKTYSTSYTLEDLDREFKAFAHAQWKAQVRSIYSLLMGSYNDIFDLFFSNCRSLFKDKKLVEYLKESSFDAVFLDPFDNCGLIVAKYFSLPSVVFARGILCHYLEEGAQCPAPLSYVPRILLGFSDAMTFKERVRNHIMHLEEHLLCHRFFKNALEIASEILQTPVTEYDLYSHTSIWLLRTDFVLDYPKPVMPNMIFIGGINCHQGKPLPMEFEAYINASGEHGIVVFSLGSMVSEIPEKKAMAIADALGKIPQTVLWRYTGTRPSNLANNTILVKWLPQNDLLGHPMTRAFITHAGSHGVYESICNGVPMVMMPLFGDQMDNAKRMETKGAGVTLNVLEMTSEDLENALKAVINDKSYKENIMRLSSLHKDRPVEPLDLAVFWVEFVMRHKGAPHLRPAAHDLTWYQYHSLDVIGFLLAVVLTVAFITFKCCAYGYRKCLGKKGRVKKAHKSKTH

[8] = Inhibition of AZT glucuronidation by human UGT enzymes from liver microsomes; design: species or system Microsome
[9] = Inhibition of acetaminophen glucuronidation by human UGT enzymes from liver microsomes; design: species or system Microsome
[10] = Inhibition of 4-methylumbelliferone glucuronidation by human UGT enzymes from liver microsomes; design: species or system Microsome
[11] = Inhibition of ciramadol glucuronidation by human UGT enzymes from liver microsomes; design: species or system Microsome
[12] = Inhibition of morphine glucuronidation by human fetal-liver microsomes; design: species or system Microsome
[13] = target: T5, UDP-glucuronosyltransferase 1A3 (Homo sapiens, UniProt P35503); test: (§1) Drug glucuronidation reaction catalyzed by human recombinant UGT1A3
T5 sequence (P35503 whole entry): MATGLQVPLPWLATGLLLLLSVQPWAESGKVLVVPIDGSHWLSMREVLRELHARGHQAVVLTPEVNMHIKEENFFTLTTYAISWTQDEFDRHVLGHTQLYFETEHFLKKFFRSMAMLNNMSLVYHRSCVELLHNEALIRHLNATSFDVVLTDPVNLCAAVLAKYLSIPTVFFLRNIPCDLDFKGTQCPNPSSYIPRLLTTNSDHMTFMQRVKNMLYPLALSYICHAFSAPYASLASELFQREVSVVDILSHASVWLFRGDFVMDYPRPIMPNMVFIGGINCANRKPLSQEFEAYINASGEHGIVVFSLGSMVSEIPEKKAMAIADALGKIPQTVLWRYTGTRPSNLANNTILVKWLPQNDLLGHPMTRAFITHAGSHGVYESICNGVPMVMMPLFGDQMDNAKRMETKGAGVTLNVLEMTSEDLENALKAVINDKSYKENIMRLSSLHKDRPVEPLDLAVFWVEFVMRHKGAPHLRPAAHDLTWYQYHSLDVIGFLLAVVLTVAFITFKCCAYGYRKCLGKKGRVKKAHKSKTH

UGT1A3 = UGT1A3 (Homo sapiens, UniProt P35503); test: as §1; settings: recombinant UGT1A3
[14] = target: T4, UDP-glucuronosyltransferase 1A9; test: (§2) Drug glucuronidation reaction catalyzed by human recombinant UGT1A9
UGT1A9 [15] = target: T2, UGT1A9; test: as §2; settings: recombinant UGT1A9
[16] = target: T1, UDP-glucuronosyltransferase 2B7; test: (§3) Drug glucuronidation reaction catalyzed by human recombinant UGT2B7
UGT2B7 = target: T6, UGT2B7 (Homo sapiens, UniProt P16662); test: as §3; settings: recombinant UGT2B7
T6 sequence (P16662 whole entry): T1 sequence (P16662 whole entry)

[17] = Inhibition of codeine glucuronidation by human UGT enzymes from liver homogenate; assay type: tissue-based

Sequence of UDP-glucuronosyltransferase 1A7 (Q9HAW7 whole entry): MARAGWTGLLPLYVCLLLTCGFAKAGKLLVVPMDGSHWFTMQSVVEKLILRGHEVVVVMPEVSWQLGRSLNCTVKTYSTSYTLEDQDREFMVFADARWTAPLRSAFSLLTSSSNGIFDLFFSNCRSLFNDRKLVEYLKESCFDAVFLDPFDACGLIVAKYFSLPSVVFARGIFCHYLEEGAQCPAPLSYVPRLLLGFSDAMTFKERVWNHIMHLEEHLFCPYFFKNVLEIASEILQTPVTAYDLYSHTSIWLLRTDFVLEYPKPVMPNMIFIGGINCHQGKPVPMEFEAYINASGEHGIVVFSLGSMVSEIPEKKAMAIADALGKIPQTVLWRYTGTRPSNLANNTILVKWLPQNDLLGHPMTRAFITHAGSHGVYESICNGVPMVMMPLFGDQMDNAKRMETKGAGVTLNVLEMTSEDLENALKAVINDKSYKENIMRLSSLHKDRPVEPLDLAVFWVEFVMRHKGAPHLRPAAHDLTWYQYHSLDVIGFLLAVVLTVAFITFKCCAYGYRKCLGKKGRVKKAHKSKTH
Sequence of UDP-glucuronosyltransferase 1A10 (Q9HAW8 whole entry): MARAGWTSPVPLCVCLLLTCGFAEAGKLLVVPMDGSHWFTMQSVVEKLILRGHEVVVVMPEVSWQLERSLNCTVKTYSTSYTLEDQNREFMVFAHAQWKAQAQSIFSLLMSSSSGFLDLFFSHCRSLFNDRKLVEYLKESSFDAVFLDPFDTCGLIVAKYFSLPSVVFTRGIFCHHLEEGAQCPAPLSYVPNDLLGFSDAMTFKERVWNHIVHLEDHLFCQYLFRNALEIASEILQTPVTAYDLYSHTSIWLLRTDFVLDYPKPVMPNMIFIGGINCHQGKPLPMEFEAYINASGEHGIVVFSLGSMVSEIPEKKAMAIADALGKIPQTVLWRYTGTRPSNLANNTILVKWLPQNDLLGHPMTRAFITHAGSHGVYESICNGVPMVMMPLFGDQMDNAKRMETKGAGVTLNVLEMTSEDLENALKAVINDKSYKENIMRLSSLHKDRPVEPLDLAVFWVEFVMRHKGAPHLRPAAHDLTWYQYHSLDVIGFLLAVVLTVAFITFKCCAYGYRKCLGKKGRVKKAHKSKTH
Sequence of UGT2B15 (P54855 whole entry): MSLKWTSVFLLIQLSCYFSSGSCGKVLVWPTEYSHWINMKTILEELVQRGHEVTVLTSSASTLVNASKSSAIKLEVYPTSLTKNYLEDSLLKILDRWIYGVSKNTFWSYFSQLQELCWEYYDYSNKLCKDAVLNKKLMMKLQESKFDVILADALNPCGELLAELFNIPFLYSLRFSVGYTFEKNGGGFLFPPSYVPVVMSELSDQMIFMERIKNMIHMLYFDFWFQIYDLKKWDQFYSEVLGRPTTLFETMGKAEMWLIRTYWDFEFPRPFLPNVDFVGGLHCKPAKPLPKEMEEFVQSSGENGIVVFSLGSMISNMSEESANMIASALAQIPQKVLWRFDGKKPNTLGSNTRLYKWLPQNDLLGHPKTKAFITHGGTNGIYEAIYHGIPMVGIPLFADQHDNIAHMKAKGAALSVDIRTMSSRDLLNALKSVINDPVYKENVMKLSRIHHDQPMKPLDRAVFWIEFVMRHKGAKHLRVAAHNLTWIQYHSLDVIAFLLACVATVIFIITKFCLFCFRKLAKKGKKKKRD
Sequence of UDP-glucuronosyltransferase 1A6 (P19224 whole entry): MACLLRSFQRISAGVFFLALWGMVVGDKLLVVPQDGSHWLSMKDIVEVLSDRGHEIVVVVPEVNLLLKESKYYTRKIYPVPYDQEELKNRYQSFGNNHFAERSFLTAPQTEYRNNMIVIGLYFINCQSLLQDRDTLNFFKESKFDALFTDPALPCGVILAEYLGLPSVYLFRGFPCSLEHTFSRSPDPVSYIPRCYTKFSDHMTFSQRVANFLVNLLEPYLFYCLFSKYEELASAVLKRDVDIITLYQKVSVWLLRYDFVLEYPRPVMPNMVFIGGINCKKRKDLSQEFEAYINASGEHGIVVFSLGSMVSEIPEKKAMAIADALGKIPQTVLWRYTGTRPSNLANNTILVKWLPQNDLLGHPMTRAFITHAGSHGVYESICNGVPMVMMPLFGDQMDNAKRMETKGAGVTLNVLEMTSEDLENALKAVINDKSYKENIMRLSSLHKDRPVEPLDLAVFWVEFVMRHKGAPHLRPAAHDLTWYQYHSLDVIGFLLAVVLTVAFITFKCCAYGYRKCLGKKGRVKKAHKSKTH

CCCC(CCC)C(=O)O [VALPROIC ACID] gave a Ki [1] of 1600 µM, an inhibition at 5000 µM (UGT2B15) of 41% and an inhibition at 5000 µM (UGT1A9 [2]) of 46%.

CCCN(CCC)S(=O)(=O)c1ccc(C(=O)O)cc1 [PROBENECID] gave a Ki [3] of 221 µM, a Ki [4] of 231 µM and a Ki [5] of 1430 µM. For the same compound, the Ki [6] was 96 µM, the Ki [7] was 2450 µM and the Ki [8] was 1600 µM. The Ki [9] was 1100 µM.

Compound O=C1Nc2ccc(Cl)cc2C(c2ccccc2)=NC1O (stereo not given) [OXAZEPAM] has a Ki [10] of 188 µM, a Ki [8] of 580 µM and a Ki [11] of 120 µM. For the same compound, the Ki [12] was 200 µM and 270 µM.

Work on O=C(O)Cc1ccccc1Nc1c(Cl)cccc1Cl [DICLOFENAC] yielded a Vmax [13] of 142 pmol/min/mg protein, a Km (UGT1A3) of 12 µM and a Vmax [14] of 166 pmol/min/mg protein. The Km (UGT1A9 [15]) was 16 µM, the Km [16] was 25 µM and the Km (UGT2B7) was 13 µM. For the same compound, the Ki [3] was 52 µM, the Ki [4] was 28 µM and the Ki [6] was 19 µM. The Ki [7] was 11 µM and the Ki [17] was 7.9 µM.
